# Reference: US20230234967A1, “Fused Azole Heterocycles as AHR Antagonists” (Senda Biosciences, Inc., priority 2021, published 2023)
# Target: T1, AHR (Homo sapiens, UniProt P35869)
# T1 construct: other cell line with a DRE-luciferase reporter stably transfected; endogenous in cells; host or cells: Human HepG2 liver carcinoma AhR-Lucia reporter cells
# T1 sequence (P35869 11-848): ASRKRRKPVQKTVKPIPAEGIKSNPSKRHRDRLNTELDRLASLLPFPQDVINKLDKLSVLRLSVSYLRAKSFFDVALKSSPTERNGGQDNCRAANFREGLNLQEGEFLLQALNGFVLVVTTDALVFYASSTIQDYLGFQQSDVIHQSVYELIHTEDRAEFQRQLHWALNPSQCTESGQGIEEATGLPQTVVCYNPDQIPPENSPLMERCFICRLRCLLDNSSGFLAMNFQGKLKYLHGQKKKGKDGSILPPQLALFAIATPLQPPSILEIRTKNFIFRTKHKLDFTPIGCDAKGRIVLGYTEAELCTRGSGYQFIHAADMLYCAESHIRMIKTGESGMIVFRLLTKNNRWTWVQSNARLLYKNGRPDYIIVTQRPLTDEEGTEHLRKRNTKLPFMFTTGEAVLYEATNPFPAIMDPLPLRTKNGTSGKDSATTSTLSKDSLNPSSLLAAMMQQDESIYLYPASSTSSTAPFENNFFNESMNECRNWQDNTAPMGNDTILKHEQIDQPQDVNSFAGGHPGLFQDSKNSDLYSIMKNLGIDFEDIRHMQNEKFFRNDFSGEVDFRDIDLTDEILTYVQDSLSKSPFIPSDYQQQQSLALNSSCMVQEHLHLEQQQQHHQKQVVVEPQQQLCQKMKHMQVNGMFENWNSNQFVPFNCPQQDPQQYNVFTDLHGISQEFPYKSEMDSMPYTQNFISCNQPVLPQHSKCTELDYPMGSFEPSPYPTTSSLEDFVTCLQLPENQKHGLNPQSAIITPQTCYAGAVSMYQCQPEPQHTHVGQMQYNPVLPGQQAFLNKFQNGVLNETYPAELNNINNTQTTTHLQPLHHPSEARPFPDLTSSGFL
# Test: DRE-Luciferase Reporter Assay (HepG2 AhR-Lucia reporter cells)
# Format: cell-based
# Details: AHR activating ligand at its EC50, luciferase read-out, read-out: HEPG2 Luc IC50
# Description: Example 27: DRE-Luciferase Reporter Assay
# AHR binds to Dioxin Responsive Elements (DRE) upstream of genes that it activates. One measure of AHR activity is activation of a reporter gene, such as luciferase, downstream of one or multiple DRE elements. Luciferase activity will reflect activation and inhibition of AHR in the cells expressing his reporter. 20000 Human HepG2 liver carcinoma—AhR-Lucia reporter cells or Human HT29 colon adenocarcinoma—AhR reporter cells or other cell line with a DRE-luciferase reporter stably transfected were plated in Eagle's Minimal Essential Medium, 10% heat-inactivated FBS, 1×non-essential amino acids Pen-Strep (10,000 U/mL) and Normocin (100 ug/mL) in plates (96-well, 384-well or other plates) and incubated overnight at 37° C. in a CO2 incubator and treated with and without AhR antagonists at a log dilution starting at 100 uM.
# After 1 hr that cells were plated an AHR activating ligand, such as TCDD, kynurenine, ITE (2-(1H-indole-3-ylcarbonyl)-4-thiazolecarboxylic methyl ester), VAF347, BNF (beta-naphthoflavone), FICZ (6-formylindolo(3,2-b) carbazole) or other AHR ligands at their specific EC50 concentration, were added to the cells with or without AHR antagonist.
# Cells were incubated for 24 or 48 hours or another time point and then, supernatant was analyzed for determination of luciferase activity as a read-out of the AHR activation or inhibition. Luciferase was measured with the commercial kit QUANTI-Luc™ assay solution kit from Invivogen following the manufacturer's instructions.
# The level of luciferase with only agonist ligand added was the maximum signal while the luciferase with […] was the minimum signal. IC50 values were determined as the concentration which inhibits half of the luciferase activity. “A” indicates an IC50 value less than 100 nM, “B” indicates an IC50 between 100 and 500 nM, “C” indicates an IC50 above 500 nM.
row,IC50,SMILES
1,> 500 nM,"Cn1ncnc1C(=O)Nc1nc2ccc(-c3ccccc3C(F)(F)F)nc2s1 [Product 6, 1-Methyl-N-(5-(2-(trifluoromethyl)phenyl)thiazolo[5,4-b]pyridin-2-yl)-1H-1,2,4-triazole-5-carboxamide]"
2,100 to 500 nM,"CN(CCO)c1ccccc1-c1ccc2nc(NC(=O)c3ccnn3C)sc2n1 [Product 37, N-(5-(2-((2-hydroxyethyl)(methyl)amino)phenyl)thiazolo[5,4-b]pyridin-2-yl)-1-methyl-1H-pyrazole-5-carboxamide]"
3,> 500 nM,"Cc1ccccc1-c1ccc2nc(NC(=O)c3cccnc3)sc2n1 [Product 9, N-(5-(o-tolyl)thiazolo[5,4-b]pyridin-2-yl)nicotinamide]"
4,> 500 nM,"Cc1ccccc1-c1ccc2nc(NC(=O)N3CCN(C)CC3)sc2n1 [Product 40, 4-methyl-N-(5-(o-tolyl)thiazolo[5,4-b]pyridin-2-yl)piperazine-1-carboxamide]"
5,100 to 500 nM,"COc1cccc(-c2ccc3nc(NC(=O)c4ccnn4C)sc3n2)c1 [Product 16, N-(5-(3-methoxyphenyl)thiazolo[5,4-b]pyridin-2-yl)-1-methyl-1H-pyrazole-5-carboxamide]"
6,> 500 nM,"Cc1ccccc1-c1cc2ncc(NC(=O)c3ccnn3C)nc2[nH]1 [Product 50, 1-methyl-N-(6-(o-tolyl)-5H-pyrrolo[2,3-b]pyrazin-3-yl)-1H-pyrazole-5-carboxamide]"
7,< 100 nM,Cn1ncnc1C(=O)Nc1cnc2cc(-c3ccccc3C(F)(F)F)[nH]c2c1 [Product 45]
8,> 500 nM,"Cn1nccc1C(=O)Nc1nc2ccc(-c3nccs3)nc2s1 [Product 28, 1-Methyl-N-(5-(thiazol-2-yl)thiazolo[5,4-b]pyridin-2-yl)-1H-pyrazole-5-carboxamide]"
9,100 to 500 nM,"Cn1cc(-c2ccc3nc(NC(=O)c4ccnn4C)sc3n2)cn1 [Product 22, 1-Methyl-N-(5-(1-methyl-1H-pyrazol-4-yl)thiazolo[5,4-b]pyridin-2-yl)-1H-pyrazole-5-carboxamide]"
10,100 to 500 nM,Cc1ccccc1-c1cc2cnc(NC(=O)c3ccnn3C)nc2[nH]1 [Product 48]
11,100 to 500 nM,"Cc1nc(-c2ccc3nc(NC(=O)c4ccnn4C)sc3n2)sc1C [Product 29, N-(5-(4,5-dimethylthiazol-2-yl)thiazolo[5,4-b]pyridin-2-yl)-1-methyl-1H-pyrazole-5-carboxamide]"
12,100 to 500 nM,Cc1ccccc1-c1cc2ncc(NC(=O)c3ncnn3C)cc2[nH]1 [Product 46]

# Further lines, the compound ahead of its results:
row,SMILES,IC50
1,"COc1ccccc1-c1ccc2nc(NC(=O)c3ccncc3)sc2n1 [Product 14, N-(5-(2-methoxyphenyl)thiazolo[5,4-b]pyridin-2-yl)isonicotinamide]",< 100 nM
2,"Cc1ccccc1-c1ccc2nc(NC(=O)c3ccnn3C)oc2n1 [Product 43, 1-methyl-N-(5-(o-tolyl)oxazolo[5,4-b]pyridin-2-yl)-1H-pyrazole-5-carboxamide]",> 500 nM
3,"Cc1ccccc1-c1cc2sc(NC(=O)c3ccnn3C)nc2cn1 [Product 42, 1-methyl-N-(6-(o-tolyl)thiazolo[4,5-c]pyridin-2-yl)-1H-pyrazole-5-carboxamide]",> 500 nM
4,"Cc1csc(-c2ccc3nc(NC(=O)c4ccnn4C)sc3n2)n1 [Product 32, 1-Methyl-N-(5-(4-methylthiazol-2-yl)thiazolo[5,4-b]pyridin-2-yl)-1H-pyrazole-5-carboxamide]",> 500 nM
5,"Cc1ccccc1-c1ccc2nc(NC(=O)c3ncnn3C)sc2n1 [Product 2, 1-Methyl-N-(5-(o-tolyl)thiazolo[5,4-b]pyridin-2-yl)-1H-1,2,4-triazole-5-carboxamide]",100 to 500 nM
6,"Cn1nccc1C(=O)Nc1nc2ccc(-c3ccccc3N3CCCC3)nc2s1 [Product 21, 1-Methyl-N-(5-(2-(pyrrolidin-1-yl)phenyl)thiazolo[5,4-b]pyridin-2-yl)-1H-pyrazole-5-carboxamide]",> 500 nM
7,"Cn1nccc1C(=O)Nc1nc2ccc(-c3ccccc3O)nc2s1 [Product 24, N-(5-(2-hydroxyphenyl)thiazolo[5,4-b]pyridin-2-yl)-1-methyl-1H-pyrazole-5-carboxamide]",> 500 nM
8,"CN(C)c1cccc(-c2ccc3nc(NC(=O)c4ccnn4C)sc3n2)c1 [Product 19, N-(5-(3-(dimethylamino)phenyl)thiazolo[5,4-b]pyridin-2-yl)-1-methyl-1H-pyrazole-5-carboxamide]",> 500 nM
9,"Cc1ccccc1-c1ccc2sc(NC(=O)c3ccnn3C)nc2n1 [Product 41, 1-methyl-N-(5-(o-tolyl)thiazolo[4,5-b]pyridin-2-yl)-1H-pyrazole-5-carboxamide]",> 500 nM
10,"Cc1ccccc1-c1ccc2nc(NC(=O)c3ccncc3)sc2n1 [Product 10, N-(5-(o-tolyl)thiazolo[5,4-b]pyridin-2-yl)isonicotinamide]",> 500 nM
11,"Cn1nccc1C(=O)Nc1nc2ccc(-c3ccccc3C(F)F)nc2s1 [Product 3, N-(5-(2-(difluoromethyl)phenyl)thiazolo[5,4-b]pyridin-2-yl)-1-methyl-1H-pyrazole-5-carboxamide]",100 to 500 nM
12,"Cn1nccc1C(=O)Nc1nc2ccc(-c3cc(F)ccc3C(F)F)nc2s1 [Product 5, N-(5-(2-(difluoromethyl)-5-fluorophenyl)thiazolo[5,4-b]pyridin-2-yl)-1-methyl-1H-pyrazole-5-carboxamide]",> 500 nM
13,"Cn1nccc1C(=O)Nc1cnc2cc(-c3ccccc3C(F)(F)F)[nH]c2c1 [Product 44, 1-methyl-N-(2-(2-(trifluoromethyl)phenyl)-1H-pyrrolo[3,2-b]pyridin-6-yl)-1H-pyrazole-5-carboxamide]",100 to 500 nM
14,"Cn1nccc1C(=O)Nc1nc2ccc(-c3ccccn3)nc2s1 [Product 27, 1-methyl-N-(5-(pyridin-2-yl)thiazolo[5,4-b]pyridin-2-yl)-1H-pyrazole-5-carboxamide]",100 to 500 nM
15,"COc1ccccc1-c1ccc2nc(NC(=O)c3ncnn3C)sc2n1 [Product 4, N-(5-(2-methoxyphenyl)thiazolo[5,4-b]pyridin-2-yl)-1-methyl-1H-1,2,4-triazole-5-carboxamide]",100 to 500 nM
16,"Cc1nc(C)c(-c2ccc3nc(NC(=O)c4ccnn4C)sc3n2)s1 [Product 33, N-(5-(2,4-dimethylthiazol-5-yl)thiazolo[5,4-b]pyridin-2-yl)-1-methyl-1H-pyrazole-5-carboxamide]",100 to 500 nM
17,"CC(=O)N(C)c1ccccc1-c1ccc2nc(NC(=O)c3ccnn3C)sc2n1 [Product 36, 1-methyl-N-(5-(2-(N-methylacetamido)phenyl)thiazolo[5,4-b]pyridin-2-yl)-1H-pyrazole-5-carboxamide]",> 500 nM
18,"CC(=O)Nc1ccccc1-c1ccc2nc(NC(=O)c3ccnn3C)sc2n1 [Product 35, N-(5-(2-acetamidophenyl)thiazolo[5,4-b]pyridin-2-yl)-1-methyl-1H-pyrazole-5-carboxamide]",> 500 nM
19,"Cn1ncnc1C(=O)Nc1nc2ccc(-c3ccccc3C(F)F)nc2s1 [Product 7, N-(5-(2-(difluoromethyl)phenyl)thiazolo[5,4-b]pyridin-2-yl)-1-methyl-1H-1,2,4-triazole-5-carboxamide]",> 500 nM
20,"COc1ccccc1-c1ccc2nc(NC(=O)c3cccnc3)sc2n1 [Product 13, N-(5-(2-methoxyphenyl)thiazolo[5,4-b]pyridin-2-yl)nicotinamide]",100 to 500 nM
